Test results from paper PMC11750672, “The in vivo metabolic pathway of Deg-AZM and in vitro investigations into the contribution of drug metabolizing enzymes and drug transporters in the drug interactions of Deg-AZM, a clinical-stage new transgelin agonist” (Frontiers in Pharmacology, 2025).

Key:
[1] = Exposure profiles of Deg-AZM and metabolites in rat plasma, urine, feces and bile (UPLC-QTOF-MS); format: in vivo, rats; conditions: / = not detected
Experimental: (§1) The plasma samples at 0.167 h, 0.5 h, 3 h and 8 h after administration were obtained from the study of tissue distribution in rats ([Gu et al., 2024]). Urine, feces and bile samples at 0–24 h after administration were obtained from the excretion study of a single gavage administration of 25 mg/kg Deg-AZM in rats ([Gu et al., 2024]).
Plasma samples were precipitated with methanol at a ratio of 1:3. Urine samples were diluted with 50% methanol at a ratio of 1:80. The feces was thoroughly ground and sonicated with a 50% methanol at a ratio of 1 g/10 mL to obtain the homogenate, then the homogenate were precipitated with methanol at a ratio of 1:1. Bile samples were precipitated with 50% methanol at a ratio of 1:1. The above obtained samples were vortexed for 1 min and centrifugated at 4°C, 12,000 rpm for 10 min. Finally, the upper layer was analyzed using the UPLC-QTOF-MS system.
The metabolites of Deg-AZM in the plasma, urine, feces and bile samples were identified by UPLC-QTOF-MS system. Liquid chromatography was performed on an ACQUITY UPLC^TM I-Class UPLC unit with a Waters ACQUITY UPLC HSS T3 (100 × 2.1 mm, 1.8 µm). A gradient program was employed with the mobile phase combining solvent A (0.02% formic acid in 5% acetonitrile) and solvent B (acetonitrile) as follows: 100% A (0–0.5 min), 100%–85% A (0.5–7 min), 85%–5% A (7–9 min), 5% A (9–12 min), 5%–100% A (12–15 min). The flow rate was 0.40 mL/min. The column temperature was maintained at 40°C.
A Waters Q-TOF Xevo G2-XS Spectrometer equipped with ESI source under positive ion mode was utilized to conduct mass spectrometry detection, for which the MS^E mode was set at the mass range of 100–1,000 Da. The cone voltage was 40 V. The desolvation temperature was set at 500°C and source temperature was 100°C. The desolvation gas flow rate was 800 L/h and the cone gas flow rate was 50 L/h. In MS^E centroid mode, the MS data were acquired with the low energy function in the trap collision energy (6 eV), and the tandem mass data were acquired with the high energy function in the ramp trap collision energy (35–45 eV).
The extraction ion chromatogram of plasma samples at 0.167 h, 0.5 h, 3 h and 8 h after administration of Deg-AZM in rats was shown in Figure 2. The extraction ion chromatogram of urine, feces and bile samples collected from 0 to 24 h after oral administration of Deg-AZM in rats was shown in Figure 3. The AUC0-t of Deg-AZM and its metabolites in plasma sample were calculated by trapezoidal rule based on the chromatographic peak area. 21 metabolites were found in rat plasma, with M0 (Deg-AZM) and metabolite M2 (demethylated) being the main exposure forms in rat plasma. M0 and M2 accounted for 61.6% and 23.0% of the total related substances in rat plasma, respectively. The relative proportions of Deg-AZM and its metabolites in urine, feces and bile samples were evaluated by the chromatographic peak area, as shown in Figure 4. The detailed proportion of Deg-AZM and its metabolites could be found in Supplementary Table S1. M0 and 28 metabolites were found in the urine of rats. […] M0 and 42 metabolites were found in the feces of rats. Metabolite M1-2 (monohydroxylation, 18.1%) and metabolite M2 (16.6%) were the main forms of fecal excretion of Deg-AZM in rats after oral administration. M0 and 38 metabolites were found in the bile samples of rats. Metabolite M1-2 (monohydroxylation, 19.2%) and metabolite M2 (16.5%) were the main forms of biliary excretion of Deg-AZM in rats after oral administration.

[2] = Excretion and material balance in rats (urine, feces 0-24 h); format: in vivo; conditions: through the kidneys and urine
Experimental: as §1
The types and proportions of metabolites in the excretion pathway were elucidated in this study. […] Based on the peak area in this study, the total amount of metabolites in urine and feces of rats was 0.589 times and 9.96 times that of the original form of Deg-AZM, respectively. The total amount of Deg-AZM excreted in its original form and various metabolites in urine and feces was 23.7% and 19.8% of the administered dose, respectively, with a material balance coefficient of 43.5%. Deg-AZM was mainly excreted in the form of its original form M0 (cumulative excretion fraction of 14.9%) and metabolite M2 (cumulative excretion fraction of 5.33%) through the kidneys and urine, and in the form of metabolite M1-2 (cumulative excretion fraction of 4.29%) and M2 (cumulative excretion fraction of 3.93%) through the intestines and feces. […] It is necessary to obtain standard samples of the main metabolites for accurate quantification or use isotope tracing techniques to further improve material balance research in the clinical stage.

## CCC1OC(=O)C(C)C(O)C(C)C(O)C(C)(O)CC(C)CN(C)C(C)C(O)C1(C)O (centres unmarked) [Deg-AZM, Deglycosylated azithromycin]
[1]; rat bile 0-24 h, single gavage 25 mg/kg Deg-AZM, by peak area
  Proportion in total related substances, Bile: 7.95%
[1]; rat feces 0-24 h, single gavage 25 mg/kg Deg-AZM, by peak area
  Proportion in total related substances, Feces: 9.12%
[1]; rat plasma 0.167-8 h after oral Deg-AZM, by AUC0-t of chromatographic peak area
  Proportion in total related substances, Plasma: 61.6%
[1]; rat urine 0-24 h, single gavage 25 mg/kg Deg-AZM, by peak area
  Proportion in total related substances, Urine: 62.9%
[2]
  Cumulative excretion fraction, urine: 14.9%
